Patent publication US20160296499A1, “Spiroindoline Antiparasitic Derivatives” (ZOETIS SERVICES LLC, priority 2013, published 2016)
Like-named read-outs stand apart in the source and are kept apart here.

Experiments:
[1] = molecular target: T1, vertebrate VAChT (Homo sapiens, UniProt Q16572); conditions: Khare et. al.; cited from earlier work
T1 sequence (Q16572 1-532): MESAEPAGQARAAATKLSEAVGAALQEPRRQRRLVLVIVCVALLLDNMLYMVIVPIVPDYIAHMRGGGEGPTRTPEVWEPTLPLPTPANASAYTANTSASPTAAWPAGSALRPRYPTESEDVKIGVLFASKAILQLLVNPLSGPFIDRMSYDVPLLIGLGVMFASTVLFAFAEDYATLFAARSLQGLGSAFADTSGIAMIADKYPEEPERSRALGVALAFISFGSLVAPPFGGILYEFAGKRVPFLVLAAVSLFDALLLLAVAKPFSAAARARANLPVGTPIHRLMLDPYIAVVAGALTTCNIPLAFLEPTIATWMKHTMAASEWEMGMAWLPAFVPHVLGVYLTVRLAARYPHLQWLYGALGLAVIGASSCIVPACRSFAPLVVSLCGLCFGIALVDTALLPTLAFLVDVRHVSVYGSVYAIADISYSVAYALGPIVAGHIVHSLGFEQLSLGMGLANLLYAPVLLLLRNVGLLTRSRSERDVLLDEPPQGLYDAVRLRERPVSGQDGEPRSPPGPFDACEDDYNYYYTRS

[2] = test system: mammals; conditions: Brittain et. al.; cited from earlier work
[3] = test system: Haemonchus contortus L3; assay: Haemonchus contortus, Larvae Stage 3 (HcL3) In Vitro Assay; conditions: Haemonchus contortus
[4] = test system: Dirofilaria immitis microfilariae; assay: Dirofilaria immitis, Microfilariae (DiMF) In Vitro Assay; conditions: Dirofilaria immitis
[5] = molecular target: T2, bovine vesicular acetylcholine transporter (VAChT) (Bos taurus, UniProt E1BK36); assay: Radioligand Binding Assay; conditions: Bovine binding Ki, CHO-K1 membranes with recombinant bovine VAChT, [3H]Compound X6 0.3 nM
T2 sequence (E1BK36 1-524): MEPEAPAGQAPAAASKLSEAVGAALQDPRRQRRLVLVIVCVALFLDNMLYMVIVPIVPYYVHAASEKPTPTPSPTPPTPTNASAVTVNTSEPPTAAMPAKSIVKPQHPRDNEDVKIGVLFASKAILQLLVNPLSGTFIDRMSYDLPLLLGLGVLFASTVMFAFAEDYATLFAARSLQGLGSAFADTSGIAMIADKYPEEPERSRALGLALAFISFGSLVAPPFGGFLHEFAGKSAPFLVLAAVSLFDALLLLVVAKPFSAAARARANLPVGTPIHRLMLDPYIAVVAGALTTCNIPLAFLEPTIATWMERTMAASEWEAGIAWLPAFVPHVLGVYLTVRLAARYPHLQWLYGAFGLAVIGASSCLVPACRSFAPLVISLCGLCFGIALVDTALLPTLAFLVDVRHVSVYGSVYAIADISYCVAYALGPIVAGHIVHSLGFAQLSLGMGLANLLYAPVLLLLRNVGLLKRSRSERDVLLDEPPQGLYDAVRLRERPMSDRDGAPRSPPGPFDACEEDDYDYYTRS

[6] = 96 h, read-out: HcL3 MEC, Minimal Effective Concentration whereby worm motility is inhibited by approximately 70%, 37° C., tested 0.001-100 μM
[7] = 72 h, read-out: Di MF, MEC, decrease in microfilariae motility by visual assessment, curve starting at 100 μM
[8] = 96 hours, 37° C., read-out: HcL3 MEC

| SMILES | binding affinity to vertebrate VAChT [1] | toxicity to mammals [2] | minimal effective concentration [3, 6] [µM] | minimal effective concentration [4, 7] [µM] | Ki [5] [nM] | minimal effective concentration [3, 8] [µM] | minimal effective concentration ([4]; 72 hours, read-out: Di MF) [µM] |
| --- | --- | --- | --- | --- | --- | --- | --- |
| OC1CCCCC1N1CCC(c2ccccc2)CC1 (centres unmarked) [Vesamicol, 2-(4-phenyl-piperidino)-cyclohexanol] | high affinity | highly toxic |  |  |  |  |  |
| O=C(NCc1ccnc(Br)c1)N1CC2(CCN(C/C=C/c3ccc(Cl)c(Cl)c3)CC2)c2c1ccc1scnc21 [Example 47, (E)-N-((2-bromopyridin-4-yl)methyl)-1-(3-(3,4-dichlorophenyl)allyl)spiro[piperidine-4,8′-thiazolo[4,5-e]indole]-6′(7′H)-carboxamide] |  |  | 100 | 10 | 919 |  |  |
| O=C(NCc1ccnc(F)c1)N1CC2(CCN(C/C=C/c3ccc(Cl)cc3)CC2)c2cc(OC(F)(F)F)ccc21 [Example 77, (E)-1′-(3-(4-chlorophenyl)allyl)-N-((2-fluoropyridin-4-yl)methyl)-5-(trifluoromethoxy)spiro[indoline-3,4′-piperidine]-1-carboxamide] |  |  |  |  | 870 | 5.7 | 3.3 |
| O=C(NCc1ccnc(Cl)c1)N1CC2(CCN(C/C=C/c3ccc(Cl)cc3)CC2)c2c(Cl)cc(Cl)cc21 [Example 59, (E)-4,6-dichloro-1′-(3-(4-chlorophenyl)allyl)-N-((2-chloropyridin-4-yl)methyl)spiro[indoline-3,4′-piperidine]-1-carboxamide] |  |  |  |  | 284 | 100 | 10 |
| O=C(NCc1ccnc(F)c1)N1CC2(CCN(C/C=C/c3ccc(Cl)cc3)CC2)c2cc(-c3cc[nH]c(=O)c3)ccc21 [Example 83, (E)-1′-(3-(4-chlorophenyl)allyl)-N-((2-fluoropyridin-4-yl)methyl)-5-(2-oxo-1,2-dihydropyridin-4-yl)spiro[indoline-3,4′-piperidine]-1-carboxamide] |  |  | 100 | 6.9 | 11200 |  |  |
| O=C(NCc1ccnc(Cl)c1)N1CC2(CCN(C/C=C/c3ccc(C(F)(F)F)cn3)CC2)c2ccc(C(F)(F)F)cc21 [Example 124, (E)-N-((2-chloropyridin-4-yl)methyl)-6-(trifluoromethyl)-1′-(3-(5-(trifluoromethyl)pyridin-2-yl)allyl)spiro[indoline-3,4′-piperidine]-1-carboxamide] |  |  | 1 | 10 | 106 |  |  |
| COc1ccc(/C=C/CN2CCC3(CC2)CN(C(=O)NCc2ccnc(Cl)c2)c2ccc(C(F)(F)F)cc23)cc1 [Example 168, (E)-N-((2-chloropyridin-4-yl)methyl)-1′-(3-(4-methoxyphenyl)allyl)-5-(trifluoromethyl)spiro[indoline-3,4′-piperidine]-1-carboxamide] |  |  |  |  | 266 | 33 | 3.3 |
| O=C(NCc1ccnc(F)c1)N1CC2(CCN(C/C=C/c3ccc(Cl)c(Cl)c3)CC2)c2cc(-c3cncnc3)ccc21 [Example 112, 1′-[(E)-3-(3,4-dichlorophenyl)allyl]-N-[(2-fluoro-4-pyridyl)methyl]-5-pyrimidin-5-yl-spiro[indoline-3,4′-piperidine]-1-carboxamide] |  |  | 100 | 4.4 | 3340 |  |  |
